What was measured:
Assay in all cases: relative viability (nuclei count vs DMSO), 5 days (fraction); higher = more cells survive
[1] = compound: C/C(=N\NC(=S)N1CCC1)/C2=CC=CC=N2 + C[C@@H](Oc1cc(-c2cnn(C3CCNCC3)c2)cnc1N)c1c(Cl)ccc(F)c1Cl [Crizotinib] (partner 1 µM)
Method in brief: (§1)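 The day after seeding in 1536-well plates, lung cancer cell lines were treated by pin tool with a single drug, or with a fixed anchor-drug dose together with five library-drug doses (not always all listed) in √10 steps. After 5 days, a combined fix-and-stain solution (final 0.05% Triton X-100, 1% formaldehyde, 1 ug/ml Hoechst) was added. Nuclei counted on 4× images gave relative viability as treated counts over vehicle counts, reported as the median of duplicate plates.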

[2] = compound: C/C(=N\NC(=S)N1CCC1)/C2=CC=CC=N2 + COc1cccc2cc(-c3nc([C@H]4CC[C@H](C(=O)O)CC4)n4ncnc(N)c34)[nH]c12 [OSI-027] (partner 0.5 µM)
Method in brief: as §1

[3] = compound: C/C(=N\NC(=S)N1CCC1)/C2=CC=CC=N2 + C[C@]1(O)C[C@@H](c2nc(-c3ccc4ccc(-c5ccccc5)nc4c3)c3c(N)nccn32)C1 [Linsitinib] (partner 1 µM)
Method in brief: as §1

[4] = compound: C/C(=N\NC(=S)N1CCC1)/C2=CC=CC=N2 + Cc1cc(Nc2cc(N3CCN(C)CC3)nc(Sc3ccc(NC(=O)C4CC4)cc3)n2)n[nH]1 [Tozasertib] (partner 0.1 µM)
Method in brief: as §1

| Cell Line | relative viability ([1]; first compound 0.05 µM) | relative viability ([1]; first compound 0.1581 µM) | relative viability ([1]; first compound 0.5 µM) | relative viability ([1]; first compound 1.581 µM) | relative viability ([1]; first compound 5 µM) | relative viability ([2]; first compound 0.05 µM) | relative viability ([2]; first compound 0.1581 µM) | relative viability ([2]; first compound 0.5 µM) | relative viability ([2]; first compound 1.581 µM) | relative viability ([2]; first compound 5 µM) | relative viability ([3]; first compound 0.05 µM) | relative viability ([3]; first compound 0.1581 µM) | relative viability ([3]; first compound 0.5 µM) | relative viability ([3]; first compound 1.581 µM) | relative viability ([3]; first compound 5 µM) | relative viability ([4]; first compound 0.05 µM) | relative viability ([4]; first compound 0.1581 µM) | relative viability ([4]; first compound 0.5 µM) | relative viability ([4]; first compound 1.581 µM) | relative viability ([4]; first compound 5 µM) |
| --- | --- | --- | --- | --- | --- | --- | --- | --- | --- | --- | --- | --- | --- | --- | --- | --- | --- | --- | --- | --- |
| UMC-11 | 0.181 | 0.115 | 0.128 | 0.101 | 0.0892 | 0.235 | 0.186 | 0.183 | 0.181 | 0.142 | 0.369 | 0.238 | 0.205 | 0.169 | 0.161 | 0.196 | 0.177 | 0.196 | 0.192 | 0.185 |
| LC-2-ad | 0.226 | 0.207 | 0.198 | 0.171 | 0.143 | 0.282 | 0.295 | 0.277 | 0.179 | 0.227 | 0.131 | 0.155 | 0.11 | 0.099 | 0.146 | 0.253 | 0.244 | 0.23 | 0.171 | 0.207 |
| SK-MES-1 | 0.231 | 0.214 | 0.179 | 0.167 | 0.177 | 0.197 | 0.182 | 0.157 | 0.137 | 0.186 | 0.269 | 0.236 | 0.225 | 0.205 | 0.183 | 0.22 | 0.188 | 0.183 | 0.158 | 0.147 |
| A-427 | 0.267 | 0.445 | 0.0997 | 0.0835 | 0.129 | 0.172 | 0.154 | 0.135 | 0.165 | 0.125 | 0.18 | 0.687 | 0.148 | 0.157 | 0.139 | 0.1 | 0.0846 | 0.12 | 0.077 | 0.102 |
| NCI-H322M | 0.312 | 0.988 | 0.213 | 0.247 | 0.254 | 0.325 | 0.351 | 0.321 | 0.288 | 0.337 | 0.291 | 0.876 | 0.197 | 0.245 | 0.319 | 0.271 | 0.27 | 0.241 | 0.313 | 0.364 |
| HCC-366 | 0.0857 | 0.0157 | 0.0133 | 0.0162 | 0.018 | 0.0452 | 0.0275 | 0.0339 | 0.0481 | 0.0279 | 0.0558 | 0.0147 | 0.0179 | 0.0206 | 0.0189 | 0.0183 | 0.0481 | 0.0208 | 0.0215 | 0.0265 |
| NCI-H1975 | 0.177 | 0.144 | 0.159 | 0.143 | 0.156 | 0.137 | 0.119 | 0.116 | 0.105 | 0.11 | 0.157 | 0.151 | 0.145 | 0.158 | 0.163 | 0.105 | 0.0772 | 0.0873 | 0.101 | 0.0836 |
| NCI-H1437 | 0.138 | 0.133 | 0.128 | 0.129 | 0.0811 | 0.19 | 0.174 | 0.174 | 0.135 | 0.106 | 0.114 | 0.122 | 0.103 | 0.0866 | 0.0787 | 0.144 | 0.138 | 0.157 | 0.133 | 0.102 |
